Source: patent US20230322822A1, “ARYL PHOSPHOROUS OXIDE COMPOUNDS AND USE THEREOF” (Chengdu Di'ao Jiuhong Pharmaceutical Factory, priority 2020, published 2023)
Read-outs that look alike come from different tables or passages of the source.

Legend:
Ba/F3-EML-4-ALK-L1196M = assay: Cell anti-proliferation test 3 (CTG), Ba/F3-EML-4-ALK-L1196M; assay type: cell-based; conditions: Ba/F3 EML4-ALK-L1196M, 72 h, BaF3 cells, Day 3
[1] = test system: PC9 cells expressing EGFR-C797S/T790M/Del19; assay: Cell anti-proliferation test 2 (SRB), PC9 EGFR-C797S/T790M/Del19; assay type: cell-based; conditions: Homo sapiens, read-out: EGFR-C797S/T790M/Del19 GI50
Procedure: (§1) • 1. […] Test information: • 2.1. […] Test method:
(§2) The test compounds were diluted by 5 times each time with an appropriate concentration as an initial concentration of the test, and totally diluted into 6 concentration gradients. […] SRB (Sulforhodamine B) detection method was used, and the optical density value of each well was read by a microplate reader at 490 nm wavelength.
(§3) The optical density of the cells at the drug action of 0 was set as a Tz value representing the value of the cells at the time that the drug was added. The optical density value of the cells after the solvent control DMSO acted for 72 hours was set as a C value. The optical density of the cells on which the test compounds acted for 72 hours was set as a Ti value. The response of the cells to the drug was calculated according to a method proposed by the U.S. NIH-NCI (National Institutes of Health-National Institute of Cancer): When Ti is more than or equal to Tz, the value was [(Ti−Tz)/(C−Tz)]×100; and when Ti is less than Tz, the value was [(Ti-Tz)/Tz]×100.

[2] = test system: Ba/F3 cells expressing EGFR-T790M/Del19; assay: Cell anti-proliferation test 1 (CTG), BaF3 EGFR-T790M/Del19; conditions: Mus musculus, BaF3, 72 h, read-out: EGFR-T790M/Del19 IC50
[3] = test system: PC9 cells expressing EGFR-Del19; assay: Cell anti-proliferation test 2 (SRB), PC9 EGFR-Del19; assay type: cell-based; conditions: Homo sapiens, read-out: EGFR-Del19 GI50
Procedure: as §1, §2, §3

[4] = test system: BaF3 EML-4-ALK-L1196M cells; assay: In-vivo pharmacodynamic study, transplanted tumor model of BaF3 EML-4-ALK-L1196M cells in nude mice; design: species or system BALB/c nude mice; conditions: for Effect on tumor growth (in words): compound 2 50 mg/kg, compound 6 60 mg/kg, compound 14 80 mg/kg
Procedure: The models used in this test were subcutaneous transplanted tumor models of engineered BaF3 EML-4-ALK-L1196M cells in BALB/c nude mice. The engineered BaF3 cells were cultured in vitro suspension. […] Passages were treated twice a week. When the cell number reached requirement, the cells were collected, counted and inoculated. 0.2 mL (10^6) of cells (added with matrigel, 1:1 by volume) were subcutaneously inoculated in the right back of each mouse, and divided into groups for dosing with 6 mice per group when the mean tumor volume reached 128 mm^3.
Administration mode and frequency: oral gavage was carried out with an administration volume of 10 mL/kg, and the model group was administered with the same volume of solvent. The administration was once per day and continuously carried out for 14 days. The dose of compound 2 was 50 mg/kg, the dose of compound 6 was 60 mg/kg, and the dose of compound 14 was 80 mg/kg.
General conditions such as spirit, activity, food intake and the like of the mice were observed every day, and the weight was measured thrice every week; the short diameter (a) and the long diameter (b) of each mouse tumor were measured thrice a week with a vernier caliper, and the tumor volume was calculated according to the formula (a^2×b)/2. The Relative Tumor Volume (RTV) was calculated from the measured tumor volume, wherein RTV=Vt/V0, wherein V0 was the tumor volume at random grouping (i.e., d0) and Vt was the tumor volume at each measurement (i.e., dn). The relative tumor proliferation rate of the evaluation index of the anti-tumor activity was calculated according to the following formula: relative tumor proliferation rate T/C (%): […]
(Note: TRTV: treatment group RTV; CRTV: model control group RTV. According to the therapeutic effect evaluation standard in the Technical Guidelines for Non-clinical Research of Cytotoxic Anti-tumor Drugs Issued by National Medical Products Administration of China, the value (T/C %≤40%) was effective).

[5] = test system: Ba/F3 cells expressing EGFR-WT; assay: Cell anti-proliferation test 1 (CTG), BaF3 EGFR-WT; conditions: Mus musculus, BaF3, 72 h, read-out: EGFR-WT IC50
Ba/F3-EML-4-ALK-WT = assay: Cell anti-proliferation test 3 (CTG), Ba/F3-EML-4-ALK-WT; assay type: cell-based; conditions: Mus musculus, 72 h, BaF3 cells, Day 3
[6] = test system: Ba/F3 cells expressing EGFR-C797S/T790M/L858R; assay: Cell anti-proliferation test 1 (CTG), BaF3 EGFR-C797S/T790M/L858R; conditions: Mus musculus, BaF3, 72 h, read-out: EGFR-C797S/T790M/L858R IC50
[7] = test system: Ba/F3 cells expressing EGFR-T790M/L858R; assay: Cell anti-proliferation test 1 (CTG), BaF3 EGFR-T790M/L858R; conditions: Mus musculus, BaF3, 72 h, read-out: EGFR-T790M/L858R IC50
EGFR-Del19 = EGFR-Del19 (Homo sapiens, UniProt P00533); assay: Enzymatic activity test (ADP-Glo) EGFR-Del19; assay type: biochemical; conditions: kinase
Procedure: • 1. […] Test information:
To assess the effect of compounds on the activity of wild-type and mutant EGFR kinases, kinase activity was tested by measuring ATP consumption in an enzymatic reaction using an ADP-Glo (Promega Corporation) kit. Samples to be tested were dissolved in DMSO and diluted in a gradient. In a microplate, an EGFR kinase, a reaction buffer (containing Tris-HCl with a pH of 7.5, MgCl2, DTT and BSA), a kinase substrate Poly(Glu4, Tyr1) and a sample (a total volume of 20 μL per well) were added per well, while a blank control (no enzyme and sample) and a negative control (no sample) were set up; incubated for 15 minutes at 23° C.; added with 5 μL of ATP, and reacted at 23° C. for 60 minutes; added with ADP-Glo Reagent, and continuously reacted for 40 minutes at room temperature to inactivate the redundant ATP; then, added with a Kinase Detection Reagent, and reacted at room temperature for 30 minutes, then the chemiluminescence intensity L of each well was measured. […] IC50 values were calculated according to the above calculation using 4Parameter Logistic Model in XLfit software. • 3.

[8] = 80 mg/kg oral gavage once per day
[9] = 60 mg/kg oral gavage once per day
[10] = 50 mg/kg oral gavage once per day

Chain of EGFR-Del19 (P00533 25-1210 limits assumed): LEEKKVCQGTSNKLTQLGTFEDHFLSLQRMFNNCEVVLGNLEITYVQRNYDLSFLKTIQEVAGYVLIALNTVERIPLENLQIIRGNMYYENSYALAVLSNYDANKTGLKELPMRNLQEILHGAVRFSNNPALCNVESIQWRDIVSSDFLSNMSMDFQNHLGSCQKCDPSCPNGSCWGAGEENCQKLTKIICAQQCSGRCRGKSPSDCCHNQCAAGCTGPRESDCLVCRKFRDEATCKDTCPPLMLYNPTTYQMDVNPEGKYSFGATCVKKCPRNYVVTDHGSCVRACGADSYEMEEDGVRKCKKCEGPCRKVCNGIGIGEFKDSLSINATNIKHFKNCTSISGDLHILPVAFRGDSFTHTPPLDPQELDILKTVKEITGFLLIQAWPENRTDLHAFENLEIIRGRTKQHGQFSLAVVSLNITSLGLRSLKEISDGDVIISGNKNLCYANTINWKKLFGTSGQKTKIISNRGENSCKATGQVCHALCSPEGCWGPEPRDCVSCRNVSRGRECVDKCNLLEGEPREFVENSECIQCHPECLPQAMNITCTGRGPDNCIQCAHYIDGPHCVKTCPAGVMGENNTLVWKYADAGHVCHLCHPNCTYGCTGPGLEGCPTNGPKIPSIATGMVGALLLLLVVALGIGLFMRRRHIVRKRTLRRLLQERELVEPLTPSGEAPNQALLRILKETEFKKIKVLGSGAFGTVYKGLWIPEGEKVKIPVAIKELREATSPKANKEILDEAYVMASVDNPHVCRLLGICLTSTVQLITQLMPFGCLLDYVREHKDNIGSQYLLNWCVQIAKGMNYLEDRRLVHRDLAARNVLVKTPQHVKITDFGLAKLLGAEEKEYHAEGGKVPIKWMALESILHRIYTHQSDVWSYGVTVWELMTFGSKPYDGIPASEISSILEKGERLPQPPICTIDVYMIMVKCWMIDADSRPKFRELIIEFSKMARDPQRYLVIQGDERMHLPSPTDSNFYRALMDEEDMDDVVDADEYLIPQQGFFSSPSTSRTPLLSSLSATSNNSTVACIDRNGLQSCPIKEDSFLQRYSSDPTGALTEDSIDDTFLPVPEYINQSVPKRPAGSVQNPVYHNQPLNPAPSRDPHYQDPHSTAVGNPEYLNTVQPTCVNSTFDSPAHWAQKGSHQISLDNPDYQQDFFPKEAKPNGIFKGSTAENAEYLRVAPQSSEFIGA

Compound: COc1cc(N2CCC(N3CCN(C)CC3)CC2)c(Cl)cc1Nc1ncc(Br)c(Nc2ccc(C)cc2P(C)(C)=O)n1 [Compound 14]
- IC50 (Ba/F3-EML-4-ALK-L1196M): 13.1 nM
- GI50 ([1]; PC-9, PC9 cells, SRB, 72 hours): 6.6 nM
- IC50 [2]: 2.3 nM
- GI50 ([3]; PC-9, PC9 cells, SRB, 72 hours): 40.2 nM
- Tumor volume Day 0 [4, 8]: 128 mm^3
- Relative tumor proliferation rate T/C Day 2 [4, 8]: 35.71%
- Tumor volume Day 2 [4, 8]: 84 mm^3
- Relative tumor proliferation rate T/C Day 5 [4, 8]: 11.26%
- Tumor volume Day 5 [4, 8]: 55 mm^3
- Relative tumor proliferation rate T/C Day 7 [4, 8]: 3.99%
- Tumor volume Day 7 [4, 8]: 37 mm^3
- Relative tumor proliferation rate T/C Day 9 [4, 8]: 3.95%
- Tumor volume Day 9 [4, 8]: 58 mm^3
- Relative tumor proliferation rate T/C Day 12 [4, 8]: 5.24%
- Tumor volume Day 12 [4, 8]: 101 mm^3
- Relative tumor proliferation rate T/C Day 14 [4, 8]: 6.34%
- Tumor volume Day 14 [4, 8]: 132 mm^3
- Effect on tumor growth (in words) [4]: obviously inhibit the tumor growth
- IC50 [5]: 620 nM
- IC50 (Ba/F3-EML-4-ALK-WT): 7.4 nM
- IC50 [6]: 76.4 nM
- IC50 [7]: 17.5 nM
- IC50 (EGFR-Del19): 16.6 nM

Compound: COc1cc(N2CCC(N(C)C)CC2)c(C)cc1Nc1ncc(Br)c(Nc2ccc(C)cc2P(C)(C)=O)n1 [Compound 6]
- IC50 (Ba/F3-EML-4-ALK-L1196M): 7.4 nM
- GI50 ([1]; PC-9, PC9 cells, SRB, 72 hours): 20.8 nM
- IC50 [2]: 10.5 nM
- GI50 ([3]; PC-9, PC9 cells, SRB, 72 hours): 65.9 nM
- Tumor volume Day 0 [4, 9]: 128 mm^3
- Relative tumor proliferation rate T/C Day 2 [4, 9]: 16.51%
- Tumor volume Day 2 [4, 9]: 37 mm^3
- Relative tumor proliferation rate T/C Day 5 [4, 9]: 5.28%
- Tumor volume Day 5 [4, 9]: 25 mm^3
- Relative tumor proliferation rate T/C Day 7 [4, 9]: 3.01%
- Tumor volume Day 7 [4, 9]: 25 mm^3
- Relative tumor proliferation rate T/C Day 9 [4, 9]: 1.59%
- Tumor volume Day 9 [4, 9]: 21 mm^3
- Relative tumor proliferation rate T/C Day 12 [4, 9]: 1.88%
- Tumor volume Day 12 [4, 9]: 33 mm^3
- Relative tumor proliferation rate T/C Day 14 [4, 9]: 1.99%
- Tumor volume Day 14 [4, 9]: 39 mm^3
- Effect on tumor growth (in words) [4]: obviously inhibit the tumor growth
- IC50 [5]: 1230 nM
- IC50 (Ba/F3-EML-4-ALK-WT): 4.8 nM
- IC50 [6]: 74.6 nM
- IC50 [7]: 29.3 nM
- IC50 (EGFR-Del19): 29.9 nM

Compound: COc1cc(N2CCC(N3CCN(C)CC3)CC2)c(C)cc1Nc1ncc(Br)c(Nc2ccc(C)cc2P(C)(C)=O)n1 [Compound 2]
- IC50 (Ba/F3-EML-4-ALK-L1196M): 13.1 nM
- GI50 ([1]; PC-9, 72 h): 15.6 nM
- IC50 [2]: 6.5 nM
- GI50 ([3]; PC-9, 72 h): 48.4 nM
- Tumor volume Day 0 [4, 10]: 129 mm^3
- Relative tumor proliferation rate T/C Day 2 [4, 10]: 24.19%
- Tumor volume Day 2 [4, 10]: 55 mm^3
- Relative tumor proliferation rate T/C Day 5 [4, 10]: 2.61%
- Tumor volume Day 5 [4, 10]: 13 mm^3
- Relative tumor proliferation rate T/C Day 7 [4, 10]: 0.74%
- Tumor volume Day 7 [4, 10]: 7 mm^3
- Relative tumor proliferation rate T/C Day 9 [4, 10]: 0.68%
- Tumor volume Day 9 [4, 10]: 10 mm^3
- Relative tumor proliferation rate T/C Day 12 [4, 10]: 0.89%
- Tumor volume Day 12 [4, 10]: 17 mm^3
- Relative tumor proliferation rate T/C Day 14 [4, 10]: 0.91%
- Tumor volume Day 14 [4, 10]: 20 mm^3
- IC50 [5]: 1260 nM
- IC50 (Ba/F3-EML-4-ALK-WT): 8 nM
- IC50 [6]: 64.1 nM
- IC50 [7]: 22.5 nM
- IC50 (EGFR-Del19): 23.5 nM
